Measurements as given in patent publication US20070032404A1, “Methods for treating diabetes and related disorders using pde10a inhibitors” (Bayer Pharmaceuticals Corporation, priority 2003, published 2007).

Key:
PDE5 = PDE5 (Homo sapiens, UniProt O76074); experiment: PDE5 inhibition assay (SPA, 3H-cGMP); type: biochemical; conditions: Table 2
Description: (§1) Test compounds and PDE10A enzyme in assay buffer are added to 96-well whitewall/clear bottom isoplates (Wallac). The reaction is initiated by the addition of ^3H-cAMP (Amersham) or ^3H-cGMP (Amersham). Following a 45-minute incubation at room temperature, the reaction is stopped by the addition of SPA yttrium silicate beads (Amersham). The samples are incubated for an additional 30 minutes, and the plates are read in the Microbeta (Wallac) for 30 seconds in the SPA mode. Data may be expressed as a percentage of control. To measure PDE2, PDE3A, PDE4B, and PDE10A activity, 3H-cAMP may be used as a substrate; and to measure PDE5 activity, 3H-cGMP may be used as a substrate.
(§2) These same compounds were run in inhibition assays for PDE2, PDE3A, PDE4B, and PDE5. […] The compounds are therefore selective for PDE10A.

PDE4B = PDE4B (Homo sapiens, UniProt Q07343); experiment: PDE4B inhibition assay (SPA, 3H-cAMP); type: biochemical; conditions: Table 2
Description: as §1, §2

PDE2 = PDE2 (Homo sapiens, UniProt O00408); experiment: PDE2 inhibition assay (SPA, 3H-cAMP); type: biochemical; conditions: Table 2
Description: as §1, §2

PDE3A = PDE3A (Homo sapiens, UniProt Q14432); experiment: PDE3A inhibition assay (SPA, 3H-cAMP); type: biochemical; conditions: Table 2; read-out: PDE3 IC50
Description: as §1, §2

[1] = tested on: dispersed pancreatic islets; experiment: Dispersed islet assay (insulin secretion); type: cell-based, rat; conditions: 8 mM glucose, 0.3 μM forskolin, 30 minutes; control = 8 mM glucose and 0.3 μM forskolin
Description: Dispersed pancreatic islet isolation. Lean rats (male Sprague-Dawley, 200-250 g) are anesthetized with nembutal (60 mg/kg, i.p.) and the abdomen opened to expose the liver and pancreas. The pancreas is distended by injection of Hank's solution into the bile duct, and then the pancreas is excised and minced with scissors while in Hank's solution. After rinsing the tissue with buffer, the pancreas is digested for 10 minutes with collagenase, rinsed, and the islets separated from debris on a Ficoll gradient. The isolated islet fraction is then rinsed with buffer, incubated with EDTA for 8 minutes, followed by incubation with trypsin and DNAase I for an additional 10 minutes. The dispersed islets are transferred to culture media containing 8 mM glucose, seeded in “V-bottom” 96-well plates (2,500 cells per well), and cultured overnight.
For assaying insulinotropic compounds, the dispersed islets are pre-incubated in 3 mM glucose for 30 minutes. The islets are then transferred to media containing 8 mM glucose, test compounds, and 0.3 μM forskolin; and incubated for an additional 30 minutes. The media is then assayed for insulin content using, for example, a SPA assay. Insulin secretion is reported as fold over control (FOC), where the control is the amount of insulin secretion in the presence of 8 mM glucose and 0.3 μM forskolin.

PDE10A = PDE10A (Homo sapiens, UniProt Q9Y233); experiment: PDE10A inhibition assay (SPA, 3H-cAMP); type: biochemical; conditions: Table 2
Description: as §1

PDE3A, sequence (Q14432 whole entry, species assumed): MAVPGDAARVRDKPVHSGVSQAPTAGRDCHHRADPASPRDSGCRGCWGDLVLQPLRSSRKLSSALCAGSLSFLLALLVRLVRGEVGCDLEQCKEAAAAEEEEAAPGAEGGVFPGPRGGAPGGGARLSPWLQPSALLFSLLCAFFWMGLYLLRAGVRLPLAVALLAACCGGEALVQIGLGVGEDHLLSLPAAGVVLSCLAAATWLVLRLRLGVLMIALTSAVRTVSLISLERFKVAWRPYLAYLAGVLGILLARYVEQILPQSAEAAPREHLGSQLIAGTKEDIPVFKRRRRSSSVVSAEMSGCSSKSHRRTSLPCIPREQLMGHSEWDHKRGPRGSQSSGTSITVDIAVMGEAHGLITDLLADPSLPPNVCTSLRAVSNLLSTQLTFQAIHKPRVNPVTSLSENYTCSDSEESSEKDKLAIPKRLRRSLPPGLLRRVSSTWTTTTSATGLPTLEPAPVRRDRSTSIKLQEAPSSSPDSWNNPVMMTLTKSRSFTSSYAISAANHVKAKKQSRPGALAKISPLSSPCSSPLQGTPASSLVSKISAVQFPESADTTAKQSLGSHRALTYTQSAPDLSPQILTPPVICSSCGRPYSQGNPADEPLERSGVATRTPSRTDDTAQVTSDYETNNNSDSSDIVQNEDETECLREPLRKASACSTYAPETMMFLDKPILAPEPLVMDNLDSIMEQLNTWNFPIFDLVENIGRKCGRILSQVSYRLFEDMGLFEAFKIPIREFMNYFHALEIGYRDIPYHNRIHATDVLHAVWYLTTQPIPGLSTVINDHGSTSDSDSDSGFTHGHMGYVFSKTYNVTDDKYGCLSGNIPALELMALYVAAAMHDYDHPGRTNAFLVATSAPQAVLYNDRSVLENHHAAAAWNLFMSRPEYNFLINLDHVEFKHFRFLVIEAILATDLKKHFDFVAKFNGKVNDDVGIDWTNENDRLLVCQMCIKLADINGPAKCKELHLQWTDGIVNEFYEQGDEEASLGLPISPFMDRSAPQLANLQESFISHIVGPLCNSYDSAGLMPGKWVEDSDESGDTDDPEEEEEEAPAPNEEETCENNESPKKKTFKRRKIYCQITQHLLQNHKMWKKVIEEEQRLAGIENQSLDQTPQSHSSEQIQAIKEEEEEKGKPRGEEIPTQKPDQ
PDE10A, sequence (Q9Y233 whole entry, species assumed): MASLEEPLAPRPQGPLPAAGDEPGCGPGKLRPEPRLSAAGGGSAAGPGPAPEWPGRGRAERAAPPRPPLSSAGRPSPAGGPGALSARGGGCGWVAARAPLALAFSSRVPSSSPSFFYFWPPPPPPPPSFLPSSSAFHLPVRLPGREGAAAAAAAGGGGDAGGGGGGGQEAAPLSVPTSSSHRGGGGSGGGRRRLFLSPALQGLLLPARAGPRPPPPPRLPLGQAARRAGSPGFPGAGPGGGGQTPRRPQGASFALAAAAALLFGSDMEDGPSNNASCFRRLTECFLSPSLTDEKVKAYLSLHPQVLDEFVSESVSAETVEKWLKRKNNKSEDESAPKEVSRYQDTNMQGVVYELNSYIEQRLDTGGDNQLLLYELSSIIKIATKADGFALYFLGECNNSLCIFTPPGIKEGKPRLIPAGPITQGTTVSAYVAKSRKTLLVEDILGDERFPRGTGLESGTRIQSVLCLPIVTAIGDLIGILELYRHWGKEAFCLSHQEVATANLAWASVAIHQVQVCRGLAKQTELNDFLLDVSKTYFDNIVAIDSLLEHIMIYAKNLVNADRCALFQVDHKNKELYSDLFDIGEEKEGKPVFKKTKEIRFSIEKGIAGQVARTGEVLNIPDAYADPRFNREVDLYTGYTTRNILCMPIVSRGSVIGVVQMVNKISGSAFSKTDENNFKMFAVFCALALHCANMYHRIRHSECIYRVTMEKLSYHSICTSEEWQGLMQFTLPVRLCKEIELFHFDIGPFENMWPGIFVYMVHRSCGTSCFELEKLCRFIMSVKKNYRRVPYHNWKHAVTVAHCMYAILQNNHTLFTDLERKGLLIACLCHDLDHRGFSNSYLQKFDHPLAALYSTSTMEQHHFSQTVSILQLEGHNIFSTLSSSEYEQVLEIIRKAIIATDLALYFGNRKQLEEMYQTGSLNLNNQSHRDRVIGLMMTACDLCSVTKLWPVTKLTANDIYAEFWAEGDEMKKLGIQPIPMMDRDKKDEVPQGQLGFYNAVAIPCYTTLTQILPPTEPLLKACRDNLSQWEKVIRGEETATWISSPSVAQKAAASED
PDE2, sequence (O00408 whole entry): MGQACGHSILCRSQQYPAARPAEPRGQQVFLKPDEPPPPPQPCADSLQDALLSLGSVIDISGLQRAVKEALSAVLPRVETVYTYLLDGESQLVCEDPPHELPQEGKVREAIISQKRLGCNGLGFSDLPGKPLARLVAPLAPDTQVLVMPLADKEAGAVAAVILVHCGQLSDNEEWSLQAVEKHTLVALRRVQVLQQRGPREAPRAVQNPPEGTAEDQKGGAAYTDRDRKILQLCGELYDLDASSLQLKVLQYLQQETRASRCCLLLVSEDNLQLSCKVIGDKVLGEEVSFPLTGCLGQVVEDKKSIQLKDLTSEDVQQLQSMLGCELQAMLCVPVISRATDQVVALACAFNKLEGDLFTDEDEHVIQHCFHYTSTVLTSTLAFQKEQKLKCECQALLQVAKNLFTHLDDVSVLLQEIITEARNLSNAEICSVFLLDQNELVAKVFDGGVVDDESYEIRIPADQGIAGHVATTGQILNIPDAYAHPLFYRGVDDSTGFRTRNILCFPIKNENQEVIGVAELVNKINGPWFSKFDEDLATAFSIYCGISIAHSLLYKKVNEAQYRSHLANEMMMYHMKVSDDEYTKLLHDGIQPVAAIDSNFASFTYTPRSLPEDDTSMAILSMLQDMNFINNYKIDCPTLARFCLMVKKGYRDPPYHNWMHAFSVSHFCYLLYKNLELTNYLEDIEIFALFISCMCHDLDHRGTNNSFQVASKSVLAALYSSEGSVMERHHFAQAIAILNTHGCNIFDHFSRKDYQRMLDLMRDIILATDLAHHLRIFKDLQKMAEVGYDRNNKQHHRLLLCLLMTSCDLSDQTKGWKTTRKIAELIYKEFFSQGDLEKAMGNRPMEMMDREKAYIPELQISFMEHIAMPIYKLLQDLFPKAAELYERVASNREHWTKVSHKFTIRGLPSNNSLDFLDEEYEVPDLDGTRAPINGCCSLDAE
PDE4B, sequence (Q07343 whole entry, species assumed): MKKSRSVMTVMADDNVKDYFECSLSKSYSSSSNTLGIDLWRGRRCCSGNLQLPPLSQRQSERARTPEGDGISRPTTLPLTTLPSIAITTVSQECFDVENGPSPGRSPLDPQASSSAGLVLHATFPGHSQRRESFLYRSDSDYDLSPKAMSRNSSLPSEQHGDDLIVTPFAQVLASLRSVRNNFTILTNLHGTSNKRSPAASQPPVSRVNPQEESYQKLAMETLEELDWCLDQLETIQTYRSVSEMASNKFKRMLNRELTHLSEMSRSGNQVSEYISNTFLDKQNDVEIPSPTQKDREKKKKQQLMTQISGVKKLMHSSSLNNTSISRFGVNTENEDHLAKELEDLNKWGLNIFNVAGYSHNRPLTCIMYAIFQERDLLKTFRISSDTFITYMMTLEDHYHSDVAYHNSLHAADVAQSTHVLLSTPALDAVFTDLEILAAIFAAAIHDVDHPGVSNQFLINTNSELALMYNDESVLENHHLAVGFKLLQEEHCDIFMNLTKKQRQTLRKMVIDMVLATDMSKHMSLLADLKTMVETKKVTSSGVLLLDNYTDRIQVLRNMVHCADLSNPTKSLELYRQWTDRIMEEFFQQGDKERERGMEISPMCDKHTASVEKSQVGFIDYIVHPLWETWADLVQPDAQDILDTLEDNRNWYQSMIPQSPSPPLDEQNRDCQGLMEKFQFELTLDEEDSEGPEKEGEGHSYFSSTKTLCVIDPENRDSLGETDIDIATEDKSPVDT

| IC50 (PDE5) | IC50 (PDE4B) | IC50 (PDE2) | IC50 (PDE3A) | IC50 (PDE10A) | SMILES | Insulin secretion, Fold-over-Control (FOC) [1] |
| --- | --- | --- | --- | --- | --- | --- |
| > 10 µM | > 10 µM | > 10 µM | > 10 µM | 0.0263 µM | CCOC(=O)c1c(-c2ccc(OC)c(OC)c2)c(C)n2c1-c1cc(OC)c(OC)cc1CC2 [C] | 1.48 |
| > 10 µM |  | > 10 µM | > 10 µM | 0.0327 µM | CCOC(=O)c1c(-c2ccc(OC)cc2OC)c(C)n2c1-c1cc(OC)c(OC)cc1CC2 [B] | 1.44 |
|  |  |  | > 10 µM | 0.03 µM | CCOC(=O)c1c(-c2ccc(O)c3ncccc23)c(C)n2c1-c1cc(OC)c(OC)cc1CC2 [Compound A] | 1.4 |
